Positions count from the first letter of the chain named.
Assays:
[1] = molecular target: T1, hTAS1R1/rTAS1R3(Mut1) (UniProt Q7RTX1+Q923K1, A277V/L68N/R278H/S168G/S302A); experiment: Calcium assay, mutated rTAS1R3 co-expressed with hTAS1R1
T1 sequence (Q7RTX1 21-841): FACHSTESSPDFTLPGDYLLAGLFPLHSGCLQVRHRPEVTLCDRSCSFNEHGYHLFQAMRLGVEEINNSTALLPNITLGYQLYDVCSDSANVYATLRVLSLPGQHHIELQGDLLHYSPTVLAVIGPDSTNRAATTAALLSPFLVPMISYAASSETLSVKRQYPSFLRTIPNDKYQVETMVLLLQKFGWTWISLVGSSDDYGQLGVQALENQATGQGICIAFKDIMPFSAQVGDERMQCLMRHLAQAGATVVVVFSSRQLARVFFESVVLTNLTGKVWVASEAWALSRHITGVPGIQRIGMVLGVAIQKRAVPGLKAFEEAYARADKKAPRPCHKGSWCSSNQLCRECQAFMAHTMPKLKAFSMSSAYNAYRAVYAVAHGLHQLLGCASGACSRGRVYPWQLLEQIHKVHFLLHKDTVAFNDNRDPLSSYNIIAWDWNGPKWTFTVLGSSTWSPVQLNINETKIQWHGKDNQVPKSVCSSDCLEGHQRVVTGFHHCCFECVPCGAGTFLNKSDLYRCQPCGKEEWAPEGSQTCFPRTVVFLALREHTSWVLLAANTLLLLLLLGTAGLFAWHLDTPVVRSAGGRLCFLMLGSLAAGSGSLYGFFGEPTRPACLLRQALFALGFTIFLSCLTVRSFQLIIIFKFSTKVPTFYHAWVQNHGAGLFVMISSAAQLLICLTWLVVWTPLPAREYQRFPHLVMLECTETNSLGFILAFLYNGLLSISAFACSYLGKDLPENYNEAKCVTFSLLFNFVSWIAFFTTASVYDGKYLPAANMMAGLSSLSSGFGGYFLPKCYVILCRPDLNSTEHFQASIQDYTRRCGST
T1 sequence (Q923K1 21-858 L68N/S168G/A277V/R278H/S302A): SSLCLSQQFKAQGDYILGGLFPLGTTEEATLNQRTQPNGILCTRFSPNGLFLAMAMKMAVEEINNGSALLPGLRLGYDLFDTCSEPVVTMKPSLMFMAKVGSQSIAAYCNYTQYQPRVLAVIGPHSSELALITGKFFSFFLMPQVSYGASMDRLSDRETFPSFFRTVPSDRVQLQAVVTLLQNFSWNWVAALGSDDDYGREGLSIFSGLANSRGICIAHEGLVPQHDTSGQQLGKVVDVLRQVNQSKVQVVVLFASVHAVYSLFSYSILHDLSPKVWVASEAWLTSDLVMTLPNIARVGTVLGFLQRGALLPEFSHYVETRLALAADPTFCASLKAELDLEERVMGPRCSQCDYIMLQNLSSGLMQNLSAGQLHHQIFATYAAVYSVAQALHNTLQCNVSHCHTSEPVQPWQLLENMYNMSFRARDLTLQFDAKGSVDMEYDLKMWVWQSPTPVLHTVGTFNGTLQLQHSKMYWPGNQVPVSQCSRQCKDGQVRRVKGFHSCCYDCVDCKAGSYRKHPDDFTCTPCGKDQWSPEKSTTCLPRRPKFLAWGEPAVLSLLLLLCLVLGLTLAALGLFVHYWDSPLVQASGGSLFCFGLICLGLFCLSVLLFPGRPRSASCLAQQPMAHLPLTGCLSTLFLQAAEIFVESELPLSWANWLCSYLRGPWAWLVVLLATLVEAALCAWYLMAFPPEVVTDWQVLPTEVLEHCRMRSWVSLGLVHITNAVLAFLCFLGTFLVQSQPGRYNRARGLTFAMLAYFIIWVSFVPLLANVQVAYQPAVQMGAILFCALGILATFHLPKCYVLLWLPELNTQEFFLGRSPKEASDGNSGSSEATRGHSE
Procedure: (§1) HEK293T/17 cells (ATCC CRL-11268) were seeded into clear bottom black 96-well plates coated with poly-D-lysine at a density of 32500 cells/well in 100 μL of DMEM containing 4.5 g/L glucose and supplemented with penicillin/streptomycin, 2 mM GlutaMAX and 10 % dialyzed fetal bovine serum. The plates were incubated for 24 h at 37 °C and 7.3 % CO2 in a humidified atmosphere. After incubation, using Fugene® 4 K (0.46 μL/well, Promega, Illkirch, France), the cells were transiently transfected with pcDNA3-hTAS1R1-WT (60 ng/well) or TAS1R1 mutants, pcDNA4-rTAS1R3 (60 ng/well), pcDNA3-Gα15i2 (10 ng/well), and pGP-CMV-GCaMP6s (Addgene #40753; 10 ng/well) as a genetically encoded calcium indicator. Twenty-four hours after transfection, the HEK293T/17 cells were rinsed with 100 μL of C1 buffer (130 mM NaCl, 5 mM KCl, 10 mM HEPES, 2 mM CaCl2, and 5 mM sodium pyruvate, pH 7.4). For each molecule tested, a semi-logarithmic concentration range was created consisting of seven increasing concentrations and a negative control (zero dose) made of buffer C1. Binary mixtures with different molecules were also made to study potential synergy. In this case, the concentration range was tested in C1 buffer containing the other molecules to be tested. The concentration ranges varied depending on the molecule, its solubility, and its effectiveness in activating the receptor. All the solutions were made on the day of the test to prevent any oxidation of the compounds. If needed, the pH of each solution was adjusted by to pH 7.4 by adding NaOH. After 20 s of basal fluorescence calcium measurement, the cells were stimulated via automatic injection of a range of compounds in eight wells, and the signal emission was recorded for an additional 70 s, via a FlexStation 3® fluorometric microplate reader (Molecular Devices, San Jose, CA, USA). As a control, molecules were also tested on mock-transfected cells with the empty vector. The emitted fluorescence was measured at a wavelength of 510 nm after excitation at 488 nm. Each measurement was performed in duplicate on the same plate, and the experiments were carried out at least four times. Kinetic data were acquired via SoftMax Pro 5.4.6 software (Molecular Devices). For each well, the decrease in the raw fluorescence as the relative fluorescence changed was calculated as ΔF/F0. Replicates were averaged for the wells subjected to the same stimuli, the background signal was subtracted, and the fluorescence changes in mock-transfected cells were subtracted. The half-maximal effective concentration (EC50) and maximal signal amplitude (max ∆F/F0) were calculated via non-linear regression of the sigmoidal function four-parameter logistic equation [f(x) = min + (max − min)/(1 + (x/EC50)^nH)] via SigmaPlot 15.0 software (Grafiti LLC, Palo Alto, CA, USA). […] For a clearer understanding of the results, the amplitude values in certain dose-response curves were normalized to max ∆F/F0 = 1, to eliminate the differences in amplitude.
We also selected other residues surrounding the cavity that differed from species to species and were not directly involved in ligand binding but rather in dynamic phenomena resulting in signal transmission, namely, four residues located less deep in the binding cavity that we mutated to their human counterparts (Y281H, S282A, P67S, L72W) (Mut2) (Fig. S3). Finally, we targeted positions at the interface between the VFTs of TAS1R1 and TAS1R3. […] A double mutant (E221Q and R173L) (Mut3) was thus created. For each group, we constructed multisite mutants (penta-, quadruple-, or double-mutants) to assess their combined effects efficiently.

[2] = molecular target: T2, hTAS1R1/rTAS1R3(Mut2) (UniProt Q7RTX1+Q923K1, L72W/P67S/S282A/Y281H); experiment: as above; conditions: for response to the agonist alone: Mut2
T2 sequence (Q7RTX1 21-841): T1 sequence (Q7RTX1 21-841)
T2 sequence (Q923K1 21-858 P67S/L72W/Y281H/S282A): T1 sequence (Q923K1 21-858 L68N/S168G/A277V/R278H/S302A) with P47S, N48L, L52W, G148S, V257A, H258R, Y261H, S262A, A282S
Procedure: as §1
We also selected other residues surrounding the cavity that differed from species to species and were not directly involved in ligand binding but rather in dynamic phenomena resulting in signal transmission, namely, four residues located less deep in the binding cavity that we mutated to their human counterparts (Y281H, S282A, P67S, L72W) (Mut2) (Fig. S3).

With `N[C@@H](CCC(=O)N[C@@H](CS)C(=O)NCC(=O)O)C(=O)O` [GSH, γ-L-glutamyl-L-cysteinyl-glycine] the EC50 [1] was 9010 ± 697 µM, the “effect of the added compound on the response to L-Glu” value ([1]; Mut1) was “increased” and the “response to the agonist alone” value ([1]; Mut1) was “reduced”. The EC50 [2] was 1220 ± 488 µM and the “response to the agonist alone” value [2] was “abolished”.

`N[C@@H](CCC(=O)O)C(=O)O` [L-Glu, L-glutamic acid, reference compound] was tested, and the “response to the agonist alone” value ([1]; Mut1) was “responded” and the “response to the agonist alone” value [2] was “abolished”.

In the case of `CCCC(CCC)NC(=O)c1ccc2c(c1)OCO2` [S807, N-(heptan-4-yl)benzo[d][1,3]dioxole-5-carboxamide, reference compound], the EC50 [1] is reported as 1.69 ± 0.1 µM, the “response to the agonist alone” value ([1]; Mut1) is reported as “unaffected” and the EC50 [2] is reported as 1.59 ± 0.27 µM. For the same molecule, the “response to the agonist alone” value [2] was “severely impaired”.

— article PMC12615753, “Glutathione as a taste modulator: molecular mechanisms of interaction with umami and sweet taste receptors” (Food Chemistry: Molecular Sciences, 2025)
